The text below walks through data of US8017350B2, “Glimepiride- and insulin-induced glycosylphosphatidylinositol-specific phospholipase C regulation” (Sanofi-Aventis Deutschland GmbH, priority 2004, dated 2011).

The test system of the assay is cabbage PLD. As to the kind of experiment: PLD assay ([14C]phosphatidylcholine). In kind it is biochemical. The note with it: 50 μM. How it is done:
Hormone-sensitive lipase (HSL) and lipoprotein lipase (LPL) were measured using a radiolabeled triolein droplet emulsion as described in “Vertesy et al., (2002) Journal Antibiotics 55:480-494”. Pancreatic lipase (PL) was determined by incubation of 0.25 mmol tributyrin in 2 ml of 5 mM Tris/HCl (pH 6.5), 6 mM sodium taurodeoxycholate, 150 mM NaCl, 1 mM CaCl2 with porcine PL and colipase in the same buffer using a recording pH stat (stirring at 1000 rpm at 25° C.) with the pH adjusted to 6.5. PC-PLC was assayed by incubation of 0.2 ml of 10 mM dipalmitoyllecithin, 0.1 ml of 10 mM SDC and 0.1 ml of 0.03 M CaCl2 with bacterial PC-PLC (in 50 mM Tris/HCl, pH 7.5, 0.1% BSA) for 10 min at 37° C. The reaction was terminated by addition of 0.1 ml of 50% TCA and subsequently of 2.5 ml of […]. After centrifugation (1500×g, 15 min), 0.2-ml portions of the upper methanol/water phase (˜1.33 ml) were removed, supplemented with 0.5 ml of 60% HClO4, then heated at 170° C. for 1 h and finally analyzed for inorganic phosphate. Mammalian PI-PLC was measured by incubation of 0.1 ml of 10 mM PI, 0.1 ml of 0.8% sodium deoxycholate, 0.1% BSA, 0.2 ml of 100 mM sodium borate (pH 7.5) and rat liver PI-PLC for 20 min at 37° C. The reaction was terminated and further processed as described for the PC-PLC. […] Radioactive phosphatidic acid was detected by phosphorimaging. […]

As for `CCCCCCCCCCCCP1(=O)O[C@@H]2[C@H](O)[C@@H](O)[C@H](O)[C@@H](O)[C@@H]2O1` (stereo partly shown) [GPI-2350, myo-inositol-1,2-cyclo-dodecylphosphonic acid], the “effect on PLD” value is “not significantly affected”.
